Holding throughout (assay): Pre-emergent herbicidal activity (Table A)
Common to all, as to type: in vivo

Assay [1] has as its system Pennsylvania Smartweed. The following applies: pre-emergence, Pesw, 11.2 kg/ha, 10-14 days, read-out: herbicidal rating (% inhibition). Summed up: (§1)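 Seeds or perennial propagules set on compacted topsoil, then covered with soil mixed with a known amount of test compound applied in acetone or water carrier. Ratings assigned on a scale based on percent inhibition of each species.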

The subject of assay [2] is Cocklebur. The following applies: Xanthium strumarium, pre-emergence, Cobu, 11.2 kg/ha, 10-14 days, read-out: herbicidal rating (% inhibition). Summed up: as §1
The subject of assay [3] is Downy Brome. To be noted: Bromus tectorum, pre-emergence, Dobr, 11.2 kg/ha, 10-14 days, read-out: herbicidal rating (% inhibition). Summed up:
as §1

In assay [4] the test system is Canada thistle. To be noted: Cirsium arvense, pre-emergence, Cath, 11.2 kg/ha, 10-14 days, read-out: herbicidal rating (% inhibition). Summed up: as §1
The subject of assay [5] is Morningglory. To be noted: Ipomoea, pre-emergence, Mogl, 11.2 kg/ha, 10-14 days, read-out: herbicidal rating (% inhibition). Summed up: as §1
The test system of assay [6] is Yellow Nutsedge. The following applies: Cyperus, pre-emergence, Yens, 11.2 kg/ha, 10-14 days, read-out: herbicidal rating (% inhibition). Summed up: as §1
In assay [7] the test system is Quackgrass. To be noted: pre-emergence, Rhqg, 11.2 kg/ha, 10-14 days, read-out: herbicidal rating (% inhibition). Summed up:
as §1

Assay [8] concerns Rhizome Johnsongrass. To be noted: Sorghum halepense, pre-emergence, Rhjg, 11.2 kg/ha, 10-14 days, read-out: herbicidal rating (% inhibition). Summed up: as §1
Assay [9] has as its system Velvetleaf. The following applies: Abutilon theophrasti, pre-emergence, Vele, 11.2 kg/ha, 10-14 days, read-out: herbicidal rating (% inhibition). Summed up: as §1
The test system of assay [10] is Barnyardgrass. To be noted: Echinochloa crus-galli, pre-emergence, Bygr, 11.2 kg/ha, 10-14 days, read-out: herbicidal rating (% inhibition). Summed up: as §1
The subject of assay [11] is Common Lambsquarters. To be noted: Chenopodium album, pre-emergence, Colq, 11.2 kg/ha, 10-14 days, read-out: herbicidal rating (% inhibition). Summed up:
as §1

A word on the inhibition: it is how much of the control response was suppressed.

On to `COC(=O)c1c(OC)nc(C(F)(F)F)c(CO)c1CC(C)C` [Compound 40, 3-pyridinecarboxylic acid, 5-(hydroxymethyl)-2-methoxy-4-(2-methylpropyl)-6-(trifluoromethyl)-, methyl ester], for which the inhibition at 11200 g/ha in [1] lay in the range of 75 to 100%; in [2] it was 0 to 24%; in assay [3], 75 to 100%; in assay [4] it was 0 to 24%; in assay [5] it was 0 to 24%; in assay [6] it was 0 to 24%. Further, the inhibition at 11200 g/ha lay within 75 to 100% in assay [7]; 0 to 24% in assay [8]; 25 to 49% in assay [9]; 75 to 100% in assay [10]; 75 to 100% in assay [11].
Regarding `CN=C(SC)c1c(C(F)(F)F)nc(OC)c(C(=O)OC)c1CC(C)C` [Compound 41, 3-pyridinecarboxylic acid, 2-methoxy-5-[(methylimino)(methylthio)methyl]-4-(2-methylpropyl)-6-(trifluoromethyl)-, methyl ester], the inhibition at 11200 g/ha in assay [1] was in the range of 75 to 100%; in assay [2], 25 to 49%; in assay [3], 75 to 100%; in assay [4], 75 to 100%; in assay [5] it was 75 to 100%; in assay [6], 0 to 24%. For the same molecule, the inhibition at 11200 g/ha lay in the range of 75 to 100% in [7]; 0 to 24% in assay [8]; 75 to 100% in [9]; 75 to 100% in assay [10]; 75 to 100% in assay [11].
In the case of `COC(=O)c1c(OC)nc(C(F)(F)F)c(C(=O)n2cccn2)c1CC(C)C` [Compound 42, 3-pyridinecarboxylic acid, 2-methoxy-4-(2-methylpropyl)-5-(1H-pyrazo1-1-ylcarbonyl)-6-(trifluoromethyl)-, methyl ester], the inhibition at 11200 g/ha lay within 75 to 100% in assay [1]; 75 to 100% in assay [2]; 75 to 100% in assay [3]; 75 to 100% in assay [4]; 75 to 100% in assay [5]; 50 to 74% in [6]. Further, the inhibition at 11200 g/ha lay in the range of 75 to 100% in assay [7]; 50 to 74% in [8]; 75 to 100% in assay [9]; 75 to 100% in [10]; 75 to 100% in assay [11].
Regarding `COC(=O)c1c(OC)nc(C(F)(F)F)c(C2=NCCO2)c1CC(C)C` [Compound 43, 3-pyridinecarboxylic acid, 5-(4,5-dihydro-2-oxazolyl)-2-methoxy-4-(2-methylpropyl)-6-(trifluoromethyl)-, methyl ester], the inhibition at 11200 g/ha in assay [1] lay in the range of 75 to 100%; in assay [2], 50 to 74%; in assay [3] it was 75 to 100%; in assay [4], 75 to 100%; in assay [5] it was 75 to 100%; in assay [6], 75 to 100%. The inhibition at 11200 g/ha in assay [7], in assay [8], in [9], in assay [10] and in assay [11] was 75 to 100% each time.
Take `CCOC(=O)c1c(C(F)(F)F)nc(OC)c(C(=O)OC)c1CC(C)C` [Compound 44, 3,5-pyridinedicarboxylic acid, 2-methoxy-4-(2-methylpropyl)-6-(trifluoromethyl)-, 5-ethyl 3-methyl ester]: the inhibition at 11200 g/ha lay within 75 to 100% in [1]; 25 to 49% in [2]; 75 to 100% in assay [3]; 75 to 100% in [4]; 75 to 100% in assay [5]; 75 to 100% in assay [6]. Besides, the inhibition at 11200 g/ha in assay [7], in assay [8], in [9], in assay [10] and in [11] was 75 to 100% throughout.
Take `CCOc1nc(C(F)(F)F)c(C(=O)SC)c(CC(C)C)c1C(=O)OC` [Compound 45, 3-pyridinecarboxylic acid, 2-ethoxy-4-(2-methylpropyl)-5-[(methylthio)carbonyl]-6-(trifluoromethyl)-, methyl ester]: the inhibition at 11200 g/ha was in the range of 75 to 100% in assay [1]; 0 to 24% in assay [2]; 75 to 100% in assay [3]; 75 to 100% in [4]; 75 to 100% in [5]; 75 to 100% in assay [6]. Moreover, the inhibition at 11200 g/ha in assay [7], in [8], in [9], in assay [10] and in assay [11] was 75 to 100% throughout.
For the molecule `CCOc1nc(C(F)(F)F)c(C(=NC)SC)c(CC(C)C)c1C(=O)OC` [Compound 46, 3-pyridinecarboxylic acid, 2-ethoxy-5-[(methylimino)(methylthio)methyl]-4-(2-methylpropyl)-6-(trifluoromethyl)-, methyl ester], the inhibition at 11200 g/ha lay in the range of 75 to 100% in assay [1]; 0 to 24% in assay [2]; 75 to 100% in assay [3]; 75 to 100% in assay [4]; 75 to 100% in assay [5]; 0 to 24% in [6]. In addition, the inhibition at 11200 g/ha was in the range of 75 to 100% in assay [7]; 0 to 24% in [8]; 50 to 74% in [9]; 75 to 100% in assay [10]; 75 to 100% in assay [11].
For `COc1nc(C(F)(F)F)c(C(=O)SC)c(CC(C)C)c1C(=O)SC` [Compound 47, 3,5-pyridinedicarbothioic acid, 2-methoxy-4-(2-methylpropyl)-6-(trifluoromethyl)-, S,S,-dimethyl ester], the inhibition at 11200 g/ha is 75 to 100% in assay [1]; 25 to 49% in assay [2]; 75 to 100% in [3]; 75 to 100% in assay [4]; 75 to 100% in assay [5]; 75 to 100% in assay [6]. Besides, the inhibition at 11200 g/ha in assay [7], in assay [8], in assay [9], in assay [10] and in assay [11] was 75 to 100% throughout.
In the case of `COC(=O)c1c(OC)nc(C(F)(F)F)c(C(=O)OC)c1C1CCC1` [Compound 48, 3,5-pyridinedicarboxylic acid, 4-cyclobuty1-2-methoxy-6-(trifluoromethyl)-, dimethyl ester], the inhibition at 11200 g/ha in assay [1], in assay [2], in [3], in assay [4], in assay [5] and in assay [6] was 75 to 100% each time. Further, the inhibition at 11200 g/ha in assay [7], in assay [8], in assay [9], in assay [10] and in assay [11] was 75 to 100% in each case.
`CCOc1nc(C(F)(F)F)c(C(=O)n2cccn2)c(CC(C)C)c1C(=O)OC` [Compound 49, 3-pyridinecarboxylic acid, 2-ethoxy-4-(2-methylpropyl)-5-(1H-pyrazo1-1-ylcarbonyl)-6-(trifluoromethyl)-, methyl ester]: the inhibition at 11200 g/ha lay in the range of 75 to 100% in [1]; 25 to 49% in assay [2]; 75 to 100% in [3]; 75 to 100% in assay [4]; 75 to 100% in assay [5]; 75 to 100% in assay [6]. Moreover, the inhibition at 11200 g/ha is 75 to 100% in assay [7]; 50 to 74% in assay [8]; 75 to 100% in assay [9]; 75 to 100% in assay [10]; 75 to 100% in assay [11].
Regarding `COC(=O)c1c(OC)nc(C(F)(F)F)c(C(=O)n2ccc(C)n2)c1CC(C)C` [Compound 51, 3-pyridinecarboxylic acid, 2-methoxy-4-(2-methylpropyl)-5-[(3-methy1-1H-pyrazo1-1-yl)carbonyl]-6-(trifluoromethyl)-, methyl ester], the inhibition at 11200 g/ha in assay [1] was 75 to 100%; in assay [2], 25 to 49%; in [3] it was 75 to 100%; in assay [4], 75 to 100%; in assay [5], 75 to 100%; in [6], 25 to 49%. The inhibition at 11200 g/ha in [7], in [8], in assay [9], in assay [10] and in [11] was 75 to 100% throughout.
